From ChEMBL document CHEMBL5579841, “Structure-based development of novel substrate-type G9a inhibitors as epigenetic modulators for sickle cell disease treatment” (Bioorg Med Chem Lett, 2024) come the findings set out here.

≈ marks a conversion by molar mass, not a printed value. Calls of active or inactive are those of the source. The rule behind the calls is not given here.

One may read the Kd as the equilibrium constant for the complex coming apart. What is called solubility is the dissolved amount per volume that the medium holds. Low readings indicate little dissolved substance, high ones much dissolved substance. In general, IC50 refers to the midpoint of a concentration-inhibition curve.

In data set [1] the target is T1, Histone-lysine N-methyltransferase EHMT2 (Homo sapiens, UniProt Q96KQ7).
T1 sequence (Q96KQ7 whole entry): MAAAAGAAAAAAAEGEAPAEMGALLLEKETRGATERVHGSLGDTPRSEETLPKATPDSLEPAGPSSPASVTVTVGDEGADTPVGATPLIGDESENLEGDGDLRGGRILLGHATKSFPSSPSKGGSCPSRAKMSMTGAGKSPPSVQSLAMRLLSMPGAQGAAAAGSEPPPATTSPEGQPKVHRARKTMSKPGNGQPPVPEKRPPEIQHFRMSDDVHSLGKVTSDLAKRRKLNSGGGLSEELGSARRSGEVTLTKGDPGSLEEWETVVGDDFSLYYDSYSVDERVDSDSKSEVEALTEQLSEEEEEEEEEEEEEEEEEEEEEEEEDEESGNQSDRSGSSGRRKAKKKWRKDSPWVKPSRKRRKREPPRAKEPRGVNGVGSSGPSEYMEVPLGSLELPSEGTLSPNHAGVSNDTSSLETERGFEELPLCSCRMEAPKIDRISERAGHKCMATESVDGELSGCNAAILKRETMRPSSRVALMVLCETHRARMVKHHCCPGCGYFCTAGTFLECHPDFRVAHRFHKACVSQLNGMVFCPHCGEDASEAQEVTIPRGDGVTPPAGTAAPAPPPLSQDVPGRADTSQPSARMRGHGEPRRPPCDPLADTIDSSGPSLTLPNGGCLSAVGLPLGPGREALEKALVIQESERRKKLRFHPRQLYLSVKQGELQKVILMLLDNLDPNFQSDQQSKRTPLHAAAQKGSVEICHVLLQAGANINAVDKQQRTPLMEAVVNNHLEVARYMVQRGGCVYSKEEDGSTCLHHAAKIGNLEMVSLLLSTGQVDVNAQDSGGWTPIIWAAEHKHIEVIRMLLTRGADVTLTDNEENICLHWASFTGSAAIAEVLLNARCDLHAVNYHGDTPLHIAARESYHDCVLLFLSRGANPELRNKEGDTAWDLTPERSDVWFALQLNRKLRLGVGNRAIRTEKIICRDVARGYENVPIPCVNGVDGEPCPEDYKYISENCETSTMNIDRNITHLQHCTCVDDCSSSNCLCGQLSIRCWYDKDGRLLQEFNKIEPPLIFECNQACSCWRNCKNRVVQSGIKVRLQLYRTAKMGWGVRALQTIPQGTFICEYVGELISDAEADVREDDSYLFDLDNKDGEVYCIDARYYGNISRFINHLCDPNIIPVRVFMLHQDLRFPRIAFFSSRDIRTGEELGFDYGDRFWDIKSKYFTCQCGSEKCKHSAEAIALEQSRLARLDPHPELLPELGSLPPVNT
As to the kind of experiment: Binding affinity to G9a (unknown origin) assessed as dissociation constant by SPR analysis. On the technique in general: In SPR one partner is held on a chip, and binding of the other changes the refractive index at the surface.

The target in data set [2] is T2, Histone-lysine N-methyltransferase EHMT2 (Homo sapiens) (UniProt Q96KQ7).
T2 sequence (whole entry): T1 sequence (Q96KQ7 whole entry)
As to the kind of experiment: Binding affinity to G9a (unknown origin) assessed as binding constant K(on) by SPR analysis.

For data set [3], the target named is T2, Histone-lysine N-methyltransferase EHMT2 (Homo sapiens). As to the kind of experiment: Binding affinity to G9a (unknown origin) assessed as binding constant K(off) by SPR analysis.
Data set [4] is described as follows: Metabolic stability in human liver microsomes assessed as compound remaining measured after 30 mins. In kind it is ADME, Microsome. The note with it: read-out: Stability.
A short description of data set [5]: Metabolic stability in mouse liver microsomes assessed as compound remaining measured after 60 mins. In kind it is ADME, Microsome. The note with it: read-out: Stability. A general note: Liver microsomes are a subcellular fraction often used to study metabolism.
Data set [6] can be described thus: Permeability of compound by PAMPA. In kind it is ADME. The note with it: read-out: permeability.
Data set [7] can be described thus: Metabolic stability in mouse liver microsomes assessed as compound remaining measured after 30 mins. In kind it is ADME, Microsome. The note with it: read-out: Stability.
The nature of data set [8]: Aqueous solubility of compound at pH 7.4. In kind it is physicochemical.
Data set [9] can be described thus: Metabolic stability in human liver microsomes assessed as compound remaining measured after 60 mins. In kind it is ADME, Microsome. The note with it: read-out: Stability.
In data set [10] the target is T1, Histone-lysine N-methyltransferase EHMT2. As to the kind of experiment: Inhibition of G9a (unknown origin).
Data set [11] has as its system HUDEP-2. As to the kind of experiment: Induction of gamma-globin mRNA expression in human HUDEP-2 cells assessed as expression shift from adult-type beta-globin to fetal-type gamma-globin upto 1 uM by […] analysis. In kind it is functional, cell-based.

As to `Cc1c(C(=O)N[C@@H](CCC2CC2)C(=O)Nc2ccc(C#N)cc2)[nH]c2c1C(=O)CC(C)(C)C2`, the Kd in [1] turned out to be 750 nM. Also, the K in data set [2] was 16000 M⁻¹ s⁻¹; in data set [3] it was 0.012 s⁻¹.
Consider `CCCC[C@H](NC(=O)c1[nH]c2c(c1C)C(=O)CC(C)(C)C2)C(=O)Nc1ccccc1`, for which the remaining at 0.5 h worked out at 22% in [4] and 11% in data set [7]. For the same molecule, the remaining at 1 h in data set [5] was 1.1%; in [9] it was 10%. Further, the Papp in [6] came out at 35.9 ×10⁻⁶ cm/s. This molecule also had a solubility in data set [8] of 7 µM (≈ 2.87 µg/mL).
In the case of `CCCC[C@H](NC(=O)c1[nH]c2c(c1C)C(=O)CC(C)(C)C2)C(=O)Nc1ccc(OC2CCN(C)CC2)nc1`, in data set [1], the Kd came out at 170 nM. Moreover, the remaining at 0.5 h was determined as 80% in data set [4] and 72% in data set [7]. In addition, in data set [10], the IC50 was determined as 44 nM. Further, the K in data set [2] turned out to be 79000 M⁻¹ s⁻¹; in data set [3], 0.013 s⁻¹. For the same molecule, the remaining at 1 h in data set [5] amounted to 53%; in data set [9] it was 62%. Further, the Papp in [6] was 8.1 ×10⁻⁶ cm/s. The molecule further came in with a solubility in data set [8] of 200 µM (≈ 105 µg/mL).
Consider `CCCC[C@H](NC(=O)c1[nH]c2c(c1C)C(=O)CC(C)(C)C2)C(=O)NCc1ccc(CN(C)C)cc1`, for which the remaining at 0.5 h in data set [4] was found to be 52%; in data set [7], 78%. This molecule also registered a half-inhibitory concentration (IC50) in [10] of 9 nM. For the same molecule, the remaining at 1 h in data set [5] is 65%; in data set [9] it was 30%. In addition, the Papp in data set [6] was found to be 7.2 ×10⁻⁶ cm/s. The molecule further showed a solubility in [8] of 201 µM (≈ 96.6 µg/mL).
Consider `CCCC[C@H](NC(=O)c1[nH]c2c(c1C)C(=O)CC(C)(C)C2)C(=O)Nc1ccc(OC2CCN(C)CC2)cc1`, for which the Kd in data set [1] came to 120 nM. Besides, the remaining at 0.5 h in [4] was 57%; in [7], 72%. In addition, in data set [10], the 50% inhibitory concentration (IC50) stood at 24 nM. Moreover, the K in data set [2] was found to be 110000 M⁻¹ s⁻¹; in [3], 0.013 s⁻¹. Besides, the figures for the remaining at 1 h in data set [5] and in [9] were 58% and 37%, respectively. In data set [11], the result was Active. The Papp in data set [6] was 9.3 ×10⁻⁶ cm/s. The solubility in [8] came out at 200 µM (≈ 105 µg/mL).
In data set [10], `CCCCC(NC(=O)c1[nH]c2c(c1C)C(=O)CC(C)(C)C2)C(=O)Nc1ccccc1` (racemic) displayed an IC50 of 1300 nM. For the same molecule, the concentration in solution in [8] (solubility) came to 20 µM (≈ 8.19 µg/mL).
For `CCCCC(NC(=O)c1[nH]c2c(c1C)C(=O)CC(C)(C)C2)C(=O)Nc1cccnc1` (racemic), the Papp in data set [6] worked out at 29 ×10⁻⁶ cm/s. For the same molecule, in [8], the solubility was > 200 µM.
In [10], `CCCCC(NC(=O)c1[nH]c2c(c1C)C(=O)CC(C)(C)C2)C(=O)Nc1ccc(OCCN(C)C)nc1` (racemic) had an IC50 of 110 nM. The Papp in data set [6] is 3.6 ×10⁻⁶ cm/s. For the same molecule, the solubility in data set [8] was > 200 µM.
With `CCCCC(NC(=O)c1[nH]c2c(c1C)C(=O)CC(C)(C)C2)C(=O)Nc1ccc(CCN2CCOCC2)cc1` (racemic), the half-maximal inhibitory concentration (IC50) in data set [10] amounted to 1000 nM. In [8], this molecule returned a solubility of 14 µM (≈ 7.32 µg/mL).
Regarding `CCCCC(NC(=O)c1[nH]c2c(c1C)C(=O)CC(C)(C)C2)C(=O)Nc1ccc(CCN2CCCCC2)cc1` (racemic), the concentration for half-maximal inhibition (IC50) in data set [10] came out at 42 nM. Moreover, the Papp in data set [6] is 6.3 ×10⁻⁶ cm/s. Further, the solubility in [8] worked out at 197 µM (≈ 103 µg/mL).
`CCCCC(NC(=O)c1[nH]c2c(c1C)C(=O)CC(C)(C)C2)C(=O)NCc1ccc(CN(C)C)cc1` (racemic): the IC50 in data set [10] stood at 12 nM. Also, the Papp in [6] was determined as 9.5 ×10⁻⁶ cm/s. Moreover, in data set [8], the solubility was > 200 µM.
In the same order, the values of `CCCCC(NC(=O)c1[nH]c2c(c1C)C(=O)CC(C)(C)C2)C(=O)Nc1ccc(OC2CCN(C)CC2)cc1` (racemic) are 22 nM, 5.9 ×10⁻⁶ cm/s and 192 µM (≈ 100 µg/mL).
In data set [10], `CCCCC(NC(=O)c1[nH]c2c(c1C)C(=O)CC(C)(C)C2)C(=O)NCc1ccccc1` (racemic) showed an IC50 of 330 nM. Besides, in data set [8], the concentration in solution (solubility) came to 2.5 µM (≈ 1.06 µg/mL).
Take `CCCCC(NC(=O)c1[nH]c2c(c1C)C(=O)CC(C)(C)C2)C(=O)Nc1ccc(CCN2CCS(=O)(=O)CC2)cc1` (racemic): in [10], half-maximal inhibition (IC50) required 2800 nM. Further, in data set [6], the Papp was 2.12 ×10⁻⁶ cm/s. Also, the concentration in solution in data set [8] (solubility) was 37 µM (≈ 21.1 µg/mL).
In the same order, the values of `CCCCC(NC(=O)c1[nH]c2c(c1C)C(=O)CC(C)(C)C2)C(=O)Nc1ccc(CN2CCCC2)cc1` (racemic) are 44 nM, 12.7 ×10⁻⁶ cm/s and 189 µM (≈ 93.1 µg/mL).
In data set [10], `CCCCC(NC(=O)c1[nH]c2c(c1C)C(=O)CC(C)(C)C2)C(=O)Nc1ccc(OCCN)nc1` (racemic) displayed a half-maximal inhibitory concentration (IC50) of 74 nM. Also, in [6], the Papp stood at 0.4 ×10⁻⁶ cm/s. In data set [8], the solubility was > 200 µM.
In [10], `CCCCC(NC(=O)c1[nH]c2c(c1C)C(=O)CC(C)(C)C2)C(=O)Nc1ccc(CN2CCC(F)(F)CC2)cc1` (racemic) returned an IC50 of 930 nM. In data set [8], the solubility amounted to 5.7 µM (≈ 3.09 µg/mL).
Regarding `CCCCC(NC(=O)c1[nH]c2c(c1C)C(=O)CC(C)(C)C2)C(=O)Nc1ccc(OC2CCN(C)CC2)nc1` (racemic), the IC50 in data set [10] worked out at 65 nM. Further, the Papp in data set [6] was 4.9 ×10⁻⁶ cm/s. Besides, the solubility in data set [8] was > 200 µM.
The like results for `CCCCC(NC(=O)c1[nH]c2c(c1C)C(=O)CC(C)(C)C2)C(=O)Nc1ccc(OCCNC)nc1` (racemic) were, in that order, 59 nM, 0.07 ×10⁻⁶ cm/s and > 200 µM.
In data set [10], `CCCCC(NC(=O)c1[nH]c2c(c1C)C(=O)CC(C)(C)C2)C(=O)Nc1ccc(CCN2CCC(F)(F)CC2)cc1` (racemic) yielded a half-maximal inhibitory concentration (IC50) of 1600 nM. For the same molecule, the concentration in solution in [8] (solubility) came to 2.3 µM (≈ 1.28 µg/mL).
Take `CCCCC(NC(=O)c1[nH]c2c(c1C)C(=O)CC(C)(C)C2)C(=O)Nc1ccc(CN(C)C)cc1` (racemic): in data set [10], half-maximal inhibition (IC50) required 42 nM.
